The record followed here is ChEMBL document CHEMBL1130593, “The importance of GLU361 position in the reaction catalyzed by cholesterol oxidase” (Bioorg Med Chem Lett, 1998).

The subject of assay [1] is Streptomyces. Briefly: Steady-state kinetic parameter on E361D mutant cholesterol oxidase.
Assay [2] deals with Streptomyces. Kind of assay: Steady-state kinetic parameter on wild-type cholesterol oxidase.

Structures are written as SMILES.

Broadly, the Km is the concentration of substrate that gives half-maximal velocity. In the case of `CC(C)CCC[C@@H](C)[C@H]1CC[C@H]2[C@@H]3CC=C4CC(=O)CC[C@]4(C)[C@H]3CC[C@]12C`, the values for the Km with Streptomyces [1] and with Streptomyces [2] were 1.4 µM and 6.2 µM, respectively. In addition, the figures for the k cat in the assay on Streptomyces [1] and with Streptomyces [2] were 0.2 s⁻¹ and 64 s⁻¹, respectively.

Turning to `CC(C)CCC[C@@H](C)[C@H]1CC[C@H]2[C@@H]3CC=C4C[C@@H](O)CC[C@]4(C)[C@H]3CC[C@]12C`, in the assay on Streptomyces [1], the Km is 0.6 µM and the k cat turned out to be 4.2 s⁻¹. Moreover, in the assay with Streptomyces [2], the Km turned out to be 3 µM and the k cat was determined as 44 s⁻¹.
